A value given as a limit tells only on which side of the number the result lay.

Among the data in US20200247800A1, “SUBSTITUTED BICYCLIC HETEROCYCLIC COMPOUNDS AS NADPH OXIDASE INHIBITORS” (Glenmark Pharmaceuticals S.A., priority 2017, published 2020) are inhibition and IC50 values, retold here.

The test deals with T1, human NOX4 (Homo sapiens, UniProt Q9NPH5).
T1 construct: expressed in transfected cells; membrane fraction used
T1 sequence (Q9NPH5 1-578): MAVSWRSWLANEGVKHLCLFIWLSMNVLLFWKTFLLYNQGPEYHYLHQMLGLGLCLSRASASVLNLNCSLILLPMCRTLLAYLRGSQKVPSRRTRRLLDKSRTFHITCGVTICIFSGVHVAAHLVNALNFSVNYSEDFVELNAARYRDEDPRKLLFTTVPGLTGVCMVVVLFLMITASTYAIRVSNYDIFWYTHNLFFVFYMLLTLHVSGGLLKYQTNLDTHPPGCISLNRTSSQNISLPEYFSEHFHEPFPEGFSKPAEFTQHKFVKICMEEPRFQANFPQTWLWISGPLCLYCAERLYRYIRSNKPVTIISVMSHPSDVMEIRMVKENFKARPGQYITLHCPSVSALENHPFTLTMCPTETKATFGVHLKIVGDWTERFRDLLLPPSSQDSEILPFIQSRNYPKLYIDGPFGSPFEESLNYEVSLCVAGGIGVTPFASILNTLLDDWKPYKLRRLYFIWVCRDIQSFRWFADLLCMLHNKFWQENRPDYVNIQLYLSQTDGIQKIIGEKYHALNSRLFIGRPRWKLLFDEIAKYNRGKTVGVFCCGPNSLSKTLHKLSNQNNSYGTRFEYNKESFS
T1 sequence (P13498 1-195 partner): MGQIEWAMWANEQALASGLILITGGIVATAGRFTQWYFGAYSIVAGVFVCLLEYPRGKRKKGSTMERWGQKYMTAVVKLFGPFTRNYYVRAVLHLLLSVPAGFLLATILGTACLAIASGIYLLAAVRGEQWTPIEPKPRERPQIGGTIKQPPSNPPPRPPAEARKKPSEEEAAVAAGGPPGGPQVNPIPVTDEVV
Kind of test: Cell free membrane based in vitro NOX4 assay: H2O2 production by membranes expressing human NOX4, measured with Amplex Red. The class given is biochemical. As to conditions: for inhibition at 1 µM: 1.0 μM compound, read-out: Percentage inhibition at 1.0 μM; for inhibition at 10 µM: 10.0 μM compound, read-out: Percentage inhibition at 10.0 μM; for IC50: class symbols. Here is the method: The inhibition of NOX4 activity was measured as inhibition of formation of reactive oxygen species (ROS) from oxygen in cell free assays. […] A cell free membrane based in vitro assay was developed by preparing membranes from cells stably overexpressing human NOX4. hNOX4/HEK stable cell line was generated in-house for this purpose. Membranes from stably transfected cells overexpressing human NOX4 were prepared by homogenizing the cells in buffer (20 mM HEPES, 1 mM EGTA, 0.5 mM DTT, 0.5% protease inhibitor cocktail, 1 mM PMSF, pH 7.6), followed by centrifugation at 160000 g for 30 min. Membrane fraction (pellet) was resuspended in storage buffer (homogenization buffer with 10% glycerol and 100 mM NaCl) and stored at −80° C. Protein concentration was determined by Bradford reagent. H202 production by membranes expressing human NOX4 was measured using Amplex Red (Invitrogen) by following a slightly modified version of the manufacturer's instruction manual. Briefly, membranes were incubated in assay buffer (25 mM HEPES, 0.12 M NaCl, 3 mM KCl, 1 mM MgCl2, pH 7.4) with Horse Radish Peroxidase (HRP) and Amplex Red. Reaction was started by addition of […] to the membrane mix. Antagonism of NOX4 inhibitors was measured by incubating the membrane with increasing concentrations of the inhibitors for 20 min on a plate shaker prior to addition of NADPH. H2O2 levels were measured for 10 min in a BMG Fluostar microplate reader with excitation and emission wavelengths of 544 nm and 590 nm respectively. Concentration response curves were plotted as a % of maximal response obtained in the absence of the inhibitor. IC50 value was calculated from concentration response curve by nonlinear regression analysis using GraphPad PRISM software.

Broadly, the inhibition is the drop in the measured response relative to a control, in per cent. For orientation: IC50 means the concentration that inhibits the measured activity by half. Lower therefore signals greater potency in that assay. With `Cc1nn(C)c2[nH]c(-c3ccccc3Cl)c(O)c(=O)c12` [Example 1, 6-(2-Chlorophenyl)-5-hydroxy-1,3-dimethyl-1,7-dihydro-4H-pyrazolo[3,4-b]pyridin-4-one], the inhibition at 1 µM was 94.1%, the inhibition at 10 µM came to 89.7% and the concentration for half-maximal inhibition (IC50) is below 50 nM.
For `Cc1nn(CCN2CCOCC2)c2[nH]c(-c3ccccc3Cl)c(O)c(=O)c12` [Example 2, 6-(2-Chlorophenyl)-5-hydroxy-3-methyl-1-(2-morpholinoethyl)-1H-pyrazolo[3,4-b]pyridin-4(7H)-one] the same measures were 83.5%, 81.5% and 100 to 150 nM.
In the case of `Cn1ncc2c(=O)c(O)c(-c3ccccc3Cl)[nH]c21` [Example 3, 6-(2-Chlorophenyl)-5-hydroxy-1-methyl-1,7-dihydro-4H-pyrazolo[3,4-b]pyridin-4-one], the inhibition at 1 µM amounted to 93.7%, the inhibition at 10 µM was found to be 100% and the 50% inhibitory concentration (IC50) fell in the range of 100 to 150 nM.
For `Cn1ncc2c(=O)c(O)c(-c3cccc(Cl)c3)[nH]c21` [Example 4, 6-(3-Chlorophenyl)-5-hydroxy-1-methyl-1,7-dihydro-4H-pyrazolo[3,4-b]pyridin-4-one] the same measures were 94.5%, 98.5% and above 150 nM.
With `Cn1ncc2c(=O)c(O)c(-c3ccc(Cl)cc3Cl)[nH]c21` [Example 5, 6-(2,4-Dichlorophenyl)-5-hydroxy-1-methyl-1,7-dihydro-4H-pyrazolo[3,4-b]pyridin-4-one], the inhibition at 1 µM was 74%, the inhibition at 10 µM worked out at 84.2% and the IC50 is above 150 nM.
Regarding `Cn1ncc2c(=O)c(O)c(-c3ccc(F)c(C(F)(F)F)c3)[nH]c21` [Example 6, 6-[4-Fluoro-3-(trifluoromethyl)phenyl]-5-hydroxy-1-methyl-1,7-dihydro-4H-pyrazolo[3,4-b]pyridin-4-one], the inhibition at 1 µM came to 96.3%, the inhibition at 10 µM was determined as 94.3% and the half-inhibitory concentration (IC50) lay in the range of 100 to 150 nM.
For `Cn1ncc2c(=O)c(O)c(-c3c(F)cccc3Cl)[nH]c21` [Example 7, 6-(2-Chloro-6-fluorophenyl)-5-hydroxy-1-methyl-1,7-dihydro-4H-pyrazolo[3,4-b]pyridin-4-one] the same measures were 100%, 100% and 50 to 100 nM.
With `O=c1c(O)c(-c2ccccc2Cl)[nH]c2c1cnn2CC(F)(F)F` [Example 8, 6-(2-Chlorophenyl)-5-hydroxy-1-(2,2,2-trifluoroethyl)-1,7-dihydro-4H-pyrazolo[3,4-b]pyridin-4-one], the inhibition at 1 µM was determined as 87.5%, the inhibition at 10 µM came to 100% and the half-maximal inhibitory concentration (IC50) lay within 50 to 100 nM.
`O=c1c(O)c(-c2c(F)cccc2F)[nH]c2c1cnn2-c1ccc(F)cc1` [Example 9, 6-(2,6-Difluorophenyl)-1-(4-fluorophenyl)-5-hydroxy-1,7-dihydro-4H-pyrazolo[3,4-b]pyridin-4-one]: the inhibition at 1 µM worked out at 81.7%, the inhibition at 10 µM was determined as 97.4% and the IC50 was above 150 nM.
Regarding `O=c1c(O)c(-c2ccccc2Cl)[nH]c2c1cnn2-c1ccc(F)cc1` [Example 10, 6-(2-Chlorophenyl)-1-(4-fluorophenyl)-5-hydroxy-1,7-dihydro-4H-pyrazolo[3,4-b]pyridin-4-one], the inhibition at 1 µM was 100%, the inhibition at 10 µM turned out to be 100% and the IC50 is below 50 nM.
In the case of `Cc1nn(C)c2[nH]c(-c3ccc(Cl)cc3Cl)c(O)c(=O)c12` [Example 11, 6-(2,4-Dichlorophenyl)-5-hydroxy-1,3-dimethyl-1,7-dihydro-4H-pyrazolo[3,4-b]pyridin-4-one], the inhibition at 1 µM came out at 76.6%, the inhibition at 10 µM was 76.5% and the IC50 is 100 to 150 nM.
Consider `Cc1nn(C)c2[nH]c(-c3ccc(F)cc3Cl)c(O)c(=O)c12` [Example 12, 6-(2-Chloro-4-fluorophenyl)-5-hydroxy-1,3-dimethyl-1,7-dihydro-4H-pyrazolo[3,4-b]pyridin-4-one], for which the inhibition at 1 µM amounted to 95%, the inhibition at 10 µM was found to be 86% and the IC50 was in the range of 50 to 100 nM.
Regarding `Cc1nn(C)c2[nH]c(-c3c(F)cccc3F)c(O)c(=O)c12` [Example 13, 6-(2,6-Difluorophenyl)-5-hydroxy-1,3-dimethyl-1,7-dihydro-4H-pyrazolo[3,4-b]pyridin-4-one], the inhibition at 1 µM turned out to be 99.6%, the inhibition at 10 µM was 98.7% and the IC50 is below 50 nM.
The corresponding values for `Cc1nn(C)c2[nH]c(-c3ccc(F)cc3F)c(O)c(=O)c12` [Example 14, 6-(2,4-Difluorophenyl)-5-hydroxy-1,3-dimethyl-1,7-dihydro-4H-pyrazolo[3,4-b]pyridin-4-one] are 100%, 82.5% and 50 to 100 nM.
As to `Cc1ccc(-c2[nH]c3c(c(C)nn3C)c(=O)c2O)cc1C` [Example 15, 6-(3,4-Dimethylphenyl)-5-hydroxy-1,3-dimethyl-1,7-dihydro-4H-pyrazolo[3,4-b]pyridin-4-one], the inhibition at 1 µM came to 50.1%.
Take `Cc1nn(C)c2[nH]c(-c3ccc(OC(F)(F)F)c(F)c3)c(O)c(=O)c12` [Example 16, 6-[3-Fluoro-4-(trifluoromethoxy)phenyl]-5-hydroxy-1,3-dimethyl-1,7-dihydro-4H-pyrazolo[3,4-b]pyridin-4-one]: the inhibition at 1 µM worked out at 99.7% and the concentration for half-maximal inhibition (IC50) is above 150 nM.
Regarding `Cc1nn(C)c2[nH]c(-c3ccc(F)c(F)c3)c(O)c(=O)c12` [Example 17, 6-(3,4-Difluorophenyl)-5-hydroxy-1,3-dimethyl-1,7-dihydro-4H-pyrazolo[3,4-b]pyridin-4-one], the inhibition at 1 µM is 63.9%.
On to `COc1ccc(-c2[nH]c3c(c(C)nn3C)c(=O)c2O)c(Cl)c1` [Example 18, 6-(2-Chloro-4-methoxyphenyl)-5-hydroxy-1,3-dimethyl-1,7-dihydro-4H-pyrazolo[3,4-b]pyridin-4-one], for which the inhibition at 1 µM turned out to be 78.6%, the inhibition at 10 µM was determined as 78.4% and the IC50 is 100 to 150 nM.
In the case of `COc1ccc(-c2[nH]c3c(c(C)nn3C)c(=O)c2O)c(F)c1` [Example 19, 6-(2-Fluoro-4-methoxyphenyl)-5-hydroxy-1,3-dimethyl-1,7-dihydro-4H-pyrazolo[3,4-b]pyridin-4-one], the inhibition at 1 µM was 95.3%, the inhibition at 10 µM stood at 75.2% and the half-inhibitory concentration (IC50) lay within 50 to 100 nM.
For `Cc1nn(C)c2[nH]c(-c3cc(Cl)ccc3Cl)c(O)c(=O)c12` [Example 20, 6-(2,5-Dichlorophenyl)-5-hydroxy-1,3-dimethyl-1,7-dihydro-4H-pyrazolo[3,4-b]pyridin-4-one] the same measures were 95.9%, 96.1% and below 50 nM.
As for `Cc1nn(C)c2[nH]c(-c3ccc(C(F)(F)F)cc3F)c(O)c(=O)c12` [Example 21, 6-[2-Fluoro-4-(trifluoromethyl)phenyl]-5-hydroxy-1,3-dimethyl-1,7-dihydro-4H-pyrazolo[3,4-b]pyridin-4-one], the inhibition at 1 µM was determined as 100%, the inhibition at 10 µM was 100% and the IC50 is above 150 nM.
As for `Cc1nn(C)c2[nH]c(-c3ccc(C(F)(F)F)c(F)c3)c(O)c(=O)c12` [Example 22, 6-[3-Fluoro-4-(trifluoromethyl)phenyl]-5-hydroxy-1,3-dimethyl-1,7-dihydro-4H-pyrazolo[3,4-b]pyridin-4-one], the inhibition at 1 µM came to 100%, the inhibition at 10 µM was 80.9% and the IC50 is above 150 nM.
